{
  "source": "paper PMC7714403",
  "about": "(JCI Insight, 2020)",
  "assay_in_all_cases": "KiNativ, MOLM13 live cells",
  "format_in_all_cases": "cell-based",
  "key": {"PIK3CG": {"target": "PIK3CG (Homo sapiens, UniProt P48736)", "settings": "MOLM-13; 100 nM, 2 hours; ATP; read-out: Inhibition vs DMSO", "procedure": "(§1) Samples were analyzed by KiNativ in situ kinase profiling by ActivX Biosciences."}, "ZAK": {"target": "ZAK (Homo sapiens, UniProt Q9NYL2)", "settings": "MOLM-13; 100 nM, 2 hours; Lys1; read-out: Inhibition vs DMSO", "procedure": "as §1"}, "eEF2K": {"target": "eEF2K (Homo sapiens, UniProt O00418)", "settings": "MOLM-13; 100 nM, 2 hours; ATP; read-out: Inhibition vs DMSO", "procedure": "as §1"}, "LYN": {"target": "LYN (Homo sapiens, UniProt P07948)", "settings": "MOLM-13; 100 nM, 2 hours; Activation Loop; read-out: Inhibition vs DMSO", "procedure": "as §1"}, "MLK4": {"target": "MLK4 (Homo sapiens, UniProt Q5TCX8)", "settings": "MOLM-13; 100 nM, 2 hours; Lys2; read-out: Inhibition vs DMSO", "procedure": "as §1"}, "CaMKK2": {"target": "CaMKK2 (Homo sapiens, UniProt Q96RR4)", "sequence (Q96RR4 whole entry)": "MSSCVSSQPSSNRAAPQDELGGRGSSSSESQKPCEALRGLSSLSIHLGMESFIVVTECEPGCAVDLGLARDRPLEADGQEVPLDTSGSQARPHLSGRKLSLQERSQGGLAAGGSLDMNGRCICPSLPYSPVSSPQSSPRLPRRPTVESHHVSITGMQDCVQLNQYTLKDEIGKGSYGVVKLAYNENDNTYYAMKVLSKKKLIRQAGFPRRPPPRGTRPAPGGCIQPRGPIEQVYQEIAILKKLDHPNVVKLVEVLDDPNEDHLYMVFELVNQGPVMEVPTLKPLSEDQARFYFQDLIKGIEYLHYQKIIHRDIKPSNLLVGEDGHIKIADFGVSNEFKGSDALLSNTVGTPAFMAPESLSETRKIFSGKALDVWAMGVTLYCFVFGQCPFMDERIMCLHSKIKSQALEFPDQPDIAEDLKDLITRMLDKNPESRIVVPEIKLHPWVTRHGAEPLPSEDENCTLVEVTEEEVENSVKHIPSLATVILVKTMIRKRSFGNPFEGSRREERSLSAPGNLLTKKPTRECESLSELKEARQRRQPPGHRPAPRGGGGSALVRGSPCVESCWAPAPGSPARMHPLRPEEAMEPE", "settings": "MOLM-13, 2 h, 100 nM", "procedure": "as §1"}, "SMG1": {"target": "SMG1 (Homo sapiens, UniProt Q96Q15)", "settings": "100 nM, 2 hours, ATP", "procedure": "as §1"}, "CaMK2d": {"target": "CaMK2d (Homo sapiens, UniProt Q13557)", "sequence (Q13557 whole entry)": "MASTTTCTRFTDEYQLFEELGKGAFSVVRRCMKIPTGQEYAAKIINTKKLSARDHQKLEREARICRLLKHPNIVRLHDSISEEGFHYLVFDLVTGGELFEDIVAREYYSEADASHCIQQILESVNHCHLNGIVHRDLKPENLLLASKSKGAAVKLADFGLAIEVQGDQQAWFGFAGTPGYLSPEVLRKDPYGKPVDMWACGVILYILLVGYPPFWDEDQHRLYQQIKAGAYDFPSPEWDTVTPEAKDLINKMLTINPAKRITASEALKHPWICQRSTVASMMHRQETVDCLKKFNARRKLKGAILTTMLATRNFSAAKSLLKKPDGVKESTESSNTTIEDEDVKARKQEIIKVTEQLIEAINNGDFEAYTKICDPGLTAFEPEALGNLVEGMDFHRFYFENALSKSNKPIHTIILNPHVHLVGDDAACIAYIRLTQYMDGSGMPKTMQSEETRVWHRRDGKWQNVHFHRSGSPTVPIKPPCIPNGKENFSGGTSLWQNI", "settings": "MOLM-13; 100 nM, 2 hours; Lys1; read-out: Inhibition vs DMSO", "procedure": "as §1"}, "p38a": {"target": "p38a (Homo sapiens, UniProt Q16539)", "sequence (Q16539 whole entry)": "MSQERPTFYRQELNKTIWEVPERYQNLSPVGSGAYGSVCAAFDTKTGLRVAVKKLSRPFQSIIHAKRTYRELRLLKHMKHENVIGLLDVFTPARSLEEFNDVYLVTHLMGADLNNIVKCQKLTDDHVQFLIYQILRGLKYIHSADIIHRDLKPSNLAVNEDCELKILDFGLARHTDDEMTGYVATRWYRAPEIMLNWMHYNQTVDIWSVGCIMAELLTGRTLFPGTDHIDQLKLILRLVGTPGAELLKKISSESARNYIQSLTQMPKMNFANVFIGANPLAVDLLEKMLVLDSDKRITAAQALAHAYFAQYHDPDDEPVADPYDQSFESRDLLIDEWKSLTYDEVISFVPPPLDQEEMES", "settings": "100 nM, 2 hours", "procedure": "as §1"}, "RSK2 domain1": {"target": "T1, RSK2 domain1 (Homo sapiens, UniProt P51812)", "T1 construct": "RSK2 domain1", "T1 sequence (P51812 whole entry, the tested form may be a part)": "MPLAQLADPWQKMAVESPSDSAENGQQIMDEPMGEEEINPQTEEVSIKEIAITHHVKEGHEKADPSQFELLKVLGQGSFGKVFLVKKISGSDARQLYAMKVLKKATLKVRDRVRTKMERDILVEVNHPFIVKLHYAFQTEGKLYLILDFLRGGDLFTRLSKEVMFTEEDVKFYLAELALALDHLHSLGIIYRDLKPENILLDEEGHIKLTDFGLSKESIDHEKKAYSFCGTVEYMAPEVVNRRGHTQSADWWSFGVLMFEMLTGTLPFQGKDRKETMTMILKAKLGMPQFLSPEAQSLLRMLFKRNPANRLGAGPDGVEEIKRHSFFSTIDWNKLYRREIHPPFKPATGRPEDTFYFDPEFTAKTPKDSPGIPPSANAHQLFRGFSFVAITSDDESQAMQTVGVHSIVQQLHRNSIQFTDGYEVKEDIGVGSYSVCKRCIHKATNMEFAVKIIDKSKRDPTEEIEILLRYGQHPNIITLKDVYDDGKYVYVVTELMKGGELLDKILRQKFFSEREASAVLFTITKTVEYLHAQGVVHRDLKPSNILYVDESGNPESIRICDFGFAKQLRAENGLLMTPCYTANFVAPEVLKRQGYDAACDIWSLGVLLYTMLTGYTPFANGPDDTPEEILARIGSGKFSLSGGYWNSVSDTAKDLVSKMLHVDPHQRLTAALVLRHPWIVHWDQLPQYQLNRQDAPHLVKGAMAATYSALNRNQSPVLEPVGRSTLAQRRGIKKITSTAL", "settings": "MOLM-13, 2 h, 100 nM", "procedure": "as §1"}, "MSK1 domain1": {"target": "T2, MSK1 domain1 (Homo sapiens, UniProt O75582)", "T2 construct": "MSK1 domain1", "T2 sequence (O75582 whole entry, the tested form may be a part)": "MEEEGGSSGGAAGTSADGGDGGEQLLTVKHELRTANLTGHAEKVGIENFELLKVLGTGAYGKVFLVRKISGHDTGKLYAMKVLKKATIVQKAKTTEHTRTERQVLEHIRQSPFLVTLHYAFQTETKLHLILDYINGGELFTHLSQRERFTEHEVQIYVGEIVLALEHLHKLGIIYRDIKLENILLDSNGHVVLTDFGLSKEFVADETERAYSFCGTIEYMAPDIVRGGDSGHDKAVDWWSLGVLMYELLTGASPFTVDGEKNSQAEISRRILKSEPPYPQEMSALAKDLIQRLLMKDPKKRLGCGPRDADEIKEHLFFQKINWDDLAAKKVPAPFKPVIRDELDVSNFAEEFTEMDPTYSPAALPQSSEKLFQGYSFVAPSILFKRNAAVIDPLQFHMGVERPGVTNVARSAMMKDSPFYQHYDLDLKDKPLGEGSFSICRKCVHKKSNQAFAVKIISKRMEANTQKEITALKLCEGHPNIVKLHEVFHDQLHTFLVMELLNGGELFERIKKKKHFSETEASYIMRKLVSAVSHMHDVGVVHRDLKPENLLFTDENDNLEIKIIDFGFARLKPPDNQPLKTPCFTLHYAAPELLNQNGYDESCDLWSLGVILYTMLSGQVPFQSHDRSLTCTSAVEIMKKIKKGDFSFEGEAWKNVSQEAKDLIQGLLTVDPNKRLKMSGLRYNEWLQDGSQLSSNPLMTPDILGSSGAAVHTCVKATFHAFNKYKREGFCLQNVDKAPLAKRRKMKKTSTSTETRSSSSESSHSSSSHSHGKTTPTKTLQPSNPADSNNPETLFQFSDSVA", "settings": "MOLM-13; 100 nM, 2 hours; Lys2; read-out: Inhibition vs DMSO", "procedure": "as §1"}, "NEK7": {"target": "NEK7 (Homo sapiens, UniProt Q8TDX7)", "sequence (Q8TDX7 whole entry)": "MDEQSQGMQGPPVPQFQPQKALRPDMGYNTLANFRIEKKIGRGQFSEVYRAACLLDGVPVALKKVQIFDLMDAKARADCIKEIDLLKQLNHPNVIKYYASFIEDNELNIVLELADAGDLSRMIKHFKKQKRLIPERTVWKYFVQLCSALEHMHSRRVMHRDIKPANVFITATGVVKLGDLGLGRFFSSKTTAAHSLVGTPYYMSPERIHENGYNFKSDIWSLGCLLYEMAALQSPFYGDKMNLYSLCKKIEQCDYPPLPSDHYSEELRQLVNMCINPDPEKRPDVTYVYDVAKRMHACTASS", "settings": "MOLM-13; 100 nM, 2 hours; Lys1; read-out: Inhibition vs DMSO", "procedure": "as §1"}, "CaMK2g": {"target": "CaMK2g (Homo sapiens, UniProt Q13555)", "settings": "MOLM-13; 100 nM, 2 hours; Lys1; read-out: Inhibition vs DMSO", "procedure": "as §1"}, "MAPKAPK3": {"target": "MAPKAPK3 (Homo sapiens, UniProt Q16644)", "sequence (Q16644 whole entry)": "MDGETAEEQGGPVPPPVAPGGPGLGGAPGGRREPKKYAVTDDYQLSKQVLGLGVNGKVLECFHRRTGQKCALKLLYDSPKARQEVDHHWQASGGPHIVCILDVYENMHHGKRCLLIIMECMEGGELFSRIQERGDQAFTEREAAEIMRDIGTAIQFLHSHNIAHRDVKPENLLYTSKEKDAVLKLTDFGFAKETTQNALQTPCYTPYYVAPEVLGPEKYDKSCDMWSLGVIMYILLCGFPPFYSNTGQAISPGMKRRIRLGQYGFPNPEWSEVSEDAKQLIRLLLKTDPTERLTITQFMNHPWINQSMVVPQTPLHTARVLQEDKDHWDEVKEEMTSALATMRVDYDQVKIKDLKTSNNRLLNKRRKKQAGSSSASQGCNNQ", "settings": "MOLM-13; 100 nM, 2 hours; ATP Loop; read-out: Inhibition vs DMSO", "procedure": "as §1"}, "NEK3": {"target": "NEK3 (Homo sapiens, UniProt P51956)", "settings": "MOLM-13; 100 nM, 2 hours; Activation Loop; read-out: Inhibition vs DMSO", "procedure": "as §1"}, "p70S6Kb": {"target": "p70S6Kb (Homo sapiens, UniProt Q9UBS0)", "sequence (Q9UBS0 whole entry)": "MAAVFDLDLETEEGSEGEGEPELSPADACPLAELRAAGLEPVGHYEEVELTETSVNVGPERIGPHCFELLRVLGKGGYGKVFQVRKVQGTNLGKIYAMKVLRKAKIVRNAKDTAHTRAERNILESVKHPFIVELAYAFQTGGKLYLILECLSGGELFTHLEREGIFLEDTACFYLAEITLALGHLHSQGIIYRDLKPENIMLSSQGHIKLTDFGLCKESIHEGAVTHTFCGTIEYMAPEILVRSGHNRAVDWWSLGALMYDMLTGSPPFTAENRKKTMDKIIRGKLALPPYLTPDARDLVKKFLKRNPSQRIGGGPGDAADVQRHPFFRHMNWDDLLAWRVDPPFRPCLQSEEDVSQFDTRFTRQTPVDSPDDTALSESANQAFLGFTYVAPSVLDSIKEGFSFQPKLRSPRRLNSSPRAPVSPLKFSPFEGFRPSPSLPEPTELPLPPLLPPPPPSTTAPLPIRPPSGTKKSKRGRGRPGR", "settings": "MOLM-13, 2 h, 100 nM", "procedure": "as §1"}, "RSK1 domain2": {"target": "T3, RSK1 domain2 (Homo sapiens, UniProt Q15418)", "T3 construct": "RSK1 domain2", "T3 sequence (Q15418 whole entry, the tested form may be a part)": "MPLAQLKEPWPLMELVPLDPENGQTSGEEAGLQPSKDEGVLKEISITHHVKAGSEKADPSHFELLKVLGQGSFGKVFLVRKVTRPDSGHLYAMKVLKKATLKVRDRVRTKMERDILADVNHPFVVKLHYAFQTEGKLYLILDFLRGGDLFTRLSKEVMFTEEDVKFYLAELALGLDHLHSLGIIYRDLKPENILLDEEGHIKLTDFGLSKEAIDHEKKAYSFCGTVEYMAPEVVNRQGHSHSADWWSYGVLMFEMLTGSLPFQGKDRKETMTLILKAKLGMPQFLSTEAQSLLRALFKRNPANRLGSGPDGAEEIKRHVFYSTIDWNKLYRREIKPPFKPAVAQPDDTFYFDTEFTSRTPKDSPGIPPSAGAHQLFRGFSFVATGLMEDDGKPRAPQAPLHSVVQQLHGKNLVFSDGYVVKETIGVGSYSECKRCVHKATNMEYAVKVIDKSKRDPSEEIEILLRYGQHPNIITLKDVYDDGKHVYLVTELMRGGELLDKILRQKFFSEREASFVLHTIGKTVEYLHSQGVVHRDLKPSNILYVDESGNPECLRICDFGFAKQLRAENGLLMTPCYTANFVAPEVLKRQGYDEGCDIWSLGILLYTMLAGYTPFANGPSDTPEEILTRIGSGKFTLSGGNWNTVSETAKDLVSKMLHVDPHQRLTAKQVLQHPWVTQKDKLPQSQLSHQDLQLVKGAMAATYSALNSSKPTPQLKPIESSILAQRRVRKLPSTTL", "settings": "MOLM-13; 100 nM, 2 hours; Lys2; read-out: Inhibition vs DMSO", "procedure": "as §1"}, "LATS2": {"target": "T4, LATS2 (Homo sapiens, UniProt Q9NRM7)", "T4 sequence (Q9NRM7 1-1088)": "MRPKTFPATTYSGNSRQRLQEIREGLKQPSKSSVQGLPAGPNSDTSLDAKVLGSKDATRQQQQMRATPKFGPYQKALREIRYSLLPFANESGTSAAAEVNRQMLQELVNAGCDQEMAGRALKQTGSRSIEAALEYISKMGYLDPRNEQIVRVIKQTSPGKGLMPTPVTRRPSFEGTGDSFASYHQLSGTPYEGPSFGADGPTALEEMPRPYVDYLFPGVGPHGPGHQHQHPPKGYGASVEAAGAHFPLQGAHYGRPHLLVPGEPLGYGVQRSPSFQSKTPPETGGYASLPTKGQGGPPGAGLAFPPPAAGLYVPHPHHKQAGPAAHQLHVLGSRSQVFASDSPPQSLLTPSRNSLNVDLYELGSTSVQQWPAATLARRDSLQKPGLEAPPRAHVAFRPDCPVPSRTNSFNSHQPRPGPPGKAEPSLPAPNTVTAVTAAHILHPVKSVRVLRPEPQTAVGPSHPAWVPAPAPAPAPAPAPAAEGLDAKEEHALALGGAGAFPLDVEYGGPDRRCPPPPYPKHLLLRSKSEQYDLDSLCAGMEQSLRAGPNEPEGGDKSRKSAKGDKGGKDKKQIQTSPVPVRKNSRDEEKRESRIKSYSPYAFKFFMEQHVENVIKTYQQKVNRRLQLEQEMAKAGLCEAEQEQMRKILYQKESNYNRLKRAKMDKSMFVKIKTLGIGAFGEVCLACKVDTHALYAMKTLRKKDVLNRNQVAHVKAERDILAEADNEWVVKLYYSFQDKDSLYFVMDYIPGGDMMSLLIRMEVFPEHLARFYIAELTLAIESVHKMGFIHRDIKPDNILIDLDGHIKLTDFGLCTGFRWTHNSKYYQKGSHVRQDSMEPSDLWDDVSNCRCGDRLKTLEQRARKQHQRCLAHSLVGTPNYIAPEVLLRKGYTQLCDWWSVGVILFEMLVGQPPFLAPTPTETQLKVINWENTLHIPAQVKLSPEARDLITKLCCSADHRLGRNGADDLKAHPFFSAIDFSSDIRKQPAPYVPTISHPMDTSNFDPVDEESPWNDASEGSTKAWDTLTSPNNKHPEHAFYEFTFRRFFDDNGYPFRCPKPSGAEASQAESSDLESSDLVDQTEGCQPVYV", "settings": "100 nM, 2 hours", "procedure": "as §1"}, "KSR1": {"target": "KSR1 (Homo sapiens, UniProt Q8IVT5)", "settings": "MOLM-13; 100 nM, 2 hours; Activation Loop; read-out: Inhibition vs DMSO", "procedure": "as §1"}, "[1]": {"settings": "Lys1, read-out: Inhibition vs DMSO"}, "[2]": {"settings": "Lys2, read-out: Inhibition vs DMSO"}},
  "note": "Like-named read-outs stand apart in the source and are kept apart here.",
  "data": [
    {"smiles": "CN1CCN(Cc2ccc(Nc3ncc(Cl)c(Nc4ccccc4S(=O)(=O)N(C)C)n3)cc2)CC1", "note": "[TP-0903]", "values": [
      {"measurement": "inhibition at 0.1 µM", "setting": "PIK3CG", "value": -8.5, "unit": "%"},
      {"measurement": "inhibition at 0.1 µM", "setting": "ZAK", "value": 7.6, "unit": "%"},
      {"measurement": "inhibition at 0.1 µM", "setting": "eEF2K", "value": -29.5, "unit": "%"},
      {"measurement": "inhibition at 0.1 µM", "setting": "LYN", "value": 58.8, "unit": "%"},
      {"measurement": "inhibition at 0.1 µM", "setting": "MLK4", "value": -13.5, "unit": "%"},
      {"measurement": "inhibition at 0.1 µM", "setting": "CaMKK2; [1]", "value": 40.8, "unit": "%"},
      {"measurement": "inhibition at 0.1 µM", "setting": "CaMKK2; [2]", "value": 36.1, "unit": "%"},
      {"measurement": "Inhibition vs DMSO", "setting": "SMG1; DTVTIHSVGGTITILPTKTKPK", "value": -27.8, "unit": "%"},
      {"measurement": "Inhibition vs DMSO", "setting": "SMG1; SYPYLFKGLEDLHLDER", "value": -27.3, "unit": "%"},
      {"measurement": "inhibition at 0.1 µM", "setting": "CaMK2d", "value": 7.5, "unit": "%"},
      {"measurement": "Inhibition vs DMSO", "setting": "p38a; Lys2", "value": -1.9, "unit": "%"},
      {"measurement": "Inhibition vs DMSO", "setting": "p38a; Other", "value": 17.3, "unit": "%"},
      {"measurement": "inhibition at 0.1 µM", "setting": "RSK2 domain1; Activation Loop, read-out: Inhibition vs DMSO", "value": 22.7, "unit": "%"},
      {"measurement": "inhibition at 0.1 µM", "setting": "RSK2 domain1; [2]", "value": -0.9, "unit": "%"},
      {"measurement": "inhibition at 0.1 µM", "setting": "MSK1 domain1", "value": -10.3, "unit": "%"},
      {"measurement": "inhibition at 0.1 µM", "setting": "NEK7", "value": -26, "unit": "%"},
      {"measurement": "inhibition at 0.1 µM", "setting": "CaMK2g", "value": 25.8, "unit": "%"},
      {"measurement": "inhibition at 0.1 µM", "setting": "MAPKAPK3", "value": -45.7, "unit": "%"},
      {"measurement": "inhibition at 0.1 µM", "setting": "NEK3", "value": 14.6, "unit": "%"},
      {"measurement": "inhibition at 0.1 µM", "setting": "p70S6Kb; [1]", "value": 10.1, "unit": "%"},
      {"measurement": "inhibition at 0.1 µM", "setting": "p70S6Kb; [2]", "value": -12.6, "unit": "%"},
      {"measurement": "inhibition at 0.1 µM", "setting": "RSK1 domain2", "value": -19.8, "unit": "%"},
      {"measurement": "Inhibition vs DMSO", "setting": "LATS2; Lys1", "value": 7.9, "unit": "%"},
      {"measurement": "Inhibition vs DMSO", "setting": "LATS2; Lys2", "value": -14.6, "unit": "%"},
      {"measurement": "inhibition at 0.1 µM", "setting": "KSR1", "value": -11, "unit": "%"}
    ]}
  ]
}
